# Experiment: in vitro
# Conditions: human, hela cells, % viability
row,Compound,"viability at 28.5 h, 10 µM"
1,Cc1noc(C)c1CN(C)C(C)C(=O)Nc1nccs1 (stereo not shown) [CBK304826],105%
2,CC(=O)Nc1cccc(-c2cnc(N)c(N3CCN(C)CC3)n2)c1 [CBK063361],107%
3,O=c1cc(CO)oc(C(Nc2ccccn2)c2ccsc2)c1O (stereo not shown) [CBK296956],106%
4,O=C(O)CC(Cc1ccc(Cl)cc1)C(=O)Nc1ccccc1I (stereo not shown) [CBK262021],90%
5,CCn1c(CC2CCN(C(=O)CCn3nnnc3C)CC2)nn(C)c1=O [CBK307400],104%
6,Cc1nn(C)c(Oc2ccc3c(c2)CCCC3)c1[N+](=O)[O-] [CBK000273],91.2%
7,CC(C)N(Cc1nc(-c2ccc(Cl)cc2)no1)S(=O)(=O)c1cccc([N+](=O)[O-])c1 [CBK267050],83.6%
8,COc1cccc(Nc2cc(-c3ccco3)ncn2)c1 [CBK090740],101%
9,CCOC(=O)C1CCN(Cc2cccs2)CC1 [CBK026999],86.3%
10,O=C(NCCC(=O)N1CCCCC1)c1cccc(OCc2cscn2)c1 [CBK306384],98.5%
11,O=C(CCn1c(C(F)F)cc2cccnc21)NCc1ccncc1 [CBK285027],103%
12,Clc1ccc(-c2cn(-c3cnc4ccccc4c3)nn2)cc1 [CBK113044],94.8%
13,O=S(=O)(Nc1cccc(O)c1)c1ccc(OC(F)(F)F)cc1 [CBK043822],108%
14,O=C(O)[C@H]1CN(C(=O)CCc2ccco2)C[C@@H]1c1ccc(F)cc1 [CBK283722],86.5%
15,COC(=O)c1ccccc1NC(=O)CNS(=O)(=O)c1c(C)cc(C)cc1C [CBK265974],104%
16,Cc1noc(C)c1C(=O)N1CCCCCC1c1ccn(C)n1 (stereo not shown) [CBK284917],90.8%
17,CCc1[nH]nc2c1C1(CN3CCC1CC3)C(C#N)=C(N)O2 (stereo not shown) [CBK267454],101%
18,O=C(NC(c1ccccc1)c1ccccc1)N1CCN(CCc2ccccc2)CC1 [CBK158905],101%
19,CN1CCOc2cc(S(=O)(=O)Nc3cccnc3N3CCOCC3)ccc21 [CBK062299],108%
20,CN(C)C1CCN(C(=O)c2ccc(-c3cnc(OCC4CCN(C(=O)OC(C)(C)C)CC4)nc3)cc2)C1 (stereo not shown) [CBK169767],113%
21,COc1cccc(CCN2CCC(C(=O)NC(C)c3cccc4ccccc34)CC2)c1 (stereo not shown) [CBK148650],93.3%
22,CN1CCN(c2ccc(C(=O)O)cc2)CC1 [CBK264773],94.8%

row,Compound,"viability at 28.5 h, 10 µM"
1,O=C(O)CSc1nc(Nc2ccccc2)nc(N2CCOCC2)n1 [CBK269023],107%
2,O=c1c(Cc2ccc(Cl)cc2)c(O)ccn1Cc1ccncc1 [CBK291161],98.7%
3,O=C(NCCCN1CCOCC1)c1ccncc1 [CBK264561F],110%
4,O=C(NCC1(CCO)CCOC1)c1c[nH]nc1-c1cc2ccccc2o1 (stereo not shown) [CBK305492],103%
5,Cc1cccc(NC(=O)CN2C(=O)S/C(=C\c3cc(C)n(-c4ccc(N(C)C)cc4)c3C)C2=O)c1 [CBK264586],96.9%
6,COC(=O)CC1C(=O)NCCN1C(=O)COc1ccc(Cl)cc1 (stereo not shown) [CBK264938],80%
7,C#CCN(C1CCc2ccccc21)S(=O)(=O)c1cc(C(N)=O)n(C)c1 (stereo not shown) [CBK304287],95.1%
8,COc1cc2nc(NC(=O)C3COc4ccccc4O3)sc2cc1OC (stereo not shown) [CBK287702],109%
9,CC(=O)N1c2ccc(-c3cc4ccccn4c3)cc2CC1C (stereo not shown) [CBK285254],79.9%
10,O=C(O)c1ccc(-c2c(Cl)cc([N+](=O)[O-])cc2Cl)o1 [CBK026623],102%
11,CS(=O)(=O)c1ccc(-c2ccc3c(c2)C(=O)NC(C2CCN(C(=O)OCc4ccccc4)CC2)O3)cc1 (stereo not shown) [CBK156087],98.1%
12,O=c1[nH]c2ncc(-c3ccco3)nc2n1CCCN1CCOCC1 [CBK064319],90.6%
13,OC[C@]1(c2ccccc2)CC[C@H](N2CCCC2)CC1 [CBK016010],85.5%
14,COc1ccc(-c2nc3c(c(=S)[nH]2)CCCC3)cc1 [CBK020440],99.2%
15,O=C(O)c1cc(-c2cccc(O)c2)nc2ccc(Br)cc12 [CBK261777],97.9%
16,CSc1nc(NC(=O)c2cc(-c3ccccc3)oc2C)cc(N2CCNCC2)n1 [CBK050364T],89.9%
17,COC(=O)c1c(N=C(S)Nc2ccc(CC(=O)O)cc2)sc(C)c1C [CBK267111],96.4%
18,O=C(/C=C/c1cccc([N+](=O)[O-])c1)Nc1ccc(Cl)c(-c2nc3ccccc3o2)c1 [CBK264610],102%
19,CCN1C(=O)COC[C@@H]1[C@H](O)c1ccc(NC(=O)c2ccc(C#N)cc2)cc1 [CBK289689],91.6%
20,Clc1ccccc1COc1cccc(/C=N/Nc2nc(N3CCCC3)nc(N3CCCC3)n2)c1 [CBK019076],89.8%
21,COCCC(=O)NCC1Cc2cc(F)cc(-c3ccc(C(C)=O)s3)c2O1 (stereo not shown) [CBK306742],109%
22,CS(=O)(=O)N(CC(=O)O)Cc1ccccc1 [CBK265805],90.1%

row,Compound,"viability at 28.5 h, 10 µM"
1,O=C(Nc1nc(-c2cccnc2)cs1)c1ccccc1 [CBK287569],91.3%
2,Fc1ccccc1Nc1nc(-c2ccncc2)cs1 [CBK267216],103%
3,CC(C(=O)N1CCC(c2ccncc2)CC1)c1ccccc1 (stereo not shown) [CBK285484],99.1%
4,O=C(CSc1ncccn1)N/N=C/c1ccncc1 [CBK262401],103%
5,CC1(OCCCN2CCCCC2)SC(NC2CC3CCC2C3)=NC1=O (stereo not shown) [CBK115611],87.2%
6,CC1(C)Cc2c(cnn2-c2ccccc2)C(NS(=O)(=O)C2CC2)C1 (stereo not shown) [CBK307351],102%
7,CN(C)CCCC(=O)NCc1ccc(-c2csnn2)cc1 [CBK149288],91%
8,O=[N+]([O-])c1cc(/C=N/Nc2nc(N3CCOCC3)nc(N3CCOCC3)n2)c(O)c([N+](=O)[O-])c1 [CBK261237],105%
9,CC(C)n1c(NCc2ccccc2)nc2c1c(=O)n(C)c(=O)n2C [CBK140094],78.2%
10,Cc1nc2c(c(=O)[nH]1)CCN(Cc1c(C)oc3ccccc13)C2 [CBK283994],87.8%
11,COc1ccccc1-c1ccc(CC2(C(=O)NCc3ccc(F)cc3)CCOCC2)cc1 [CBK286518],100%
12,Oc1ccc(-n2ncc(-c3ccc(Cl)cc3)n2)cc1 [CBK112794],86.8%
13,COc1ccccc1NC(=O)Cn1cnc2sc(C(=O)NC(C)C)c(C)c2c1=O [CBK071847],93%
14,COCCNC(=O)c1cc(-c2ccc(C)cc2)nc2c1cnn2C(C)C [CBK305033],93.8%
15,Cc1cc(NC(=O)CCC2CCCCC2)nc2c1c(=O)oc1ccccc12 [CBK291125],111%
16,C[C@H](C(=O)N1CCCC1)C1CC[C@@]2(C)Cc3sc(NC(=O)C4CC4)nc3[C@@H](C)[C@@H]2[C@H]1O (stereo partly shown) [CBK289432],103%
17,FC(F)(F)c1ccc2c(c1)N(CCCN1CCCC1)c1ccccc1S2 [CBK015520C],88%
18,COc1ccccc1CNC(=O)N[C@@H](CC(C)C)C(=O)O [CBK286722],92.9%
19,COC(=O)C1CCN(Cc2nc3sc4c(c3c(=O)[nH]2)CCC(C)C4)CC1 (stereo not shown) [CBK304978],99.2%
20,Cc1csc2c(C3CCCN(C(=O)c4ccnn4C)C3)nc(C)n12 (stereo not shown) [CBK285215],96.9%

# Source: article PMC12040169 (PLOS Biology, 2025)
